Legend:
Type in all cases: cell-based, human
[1] = tested on: Immortalized fibroblasts from a CMD patient; test: Laminin binding, immortalized fibroblasts from a CMD patient (FIG. 5); settings: dose response curve
Method: FIG. 5. […] A dose response curve for Givinostat was prepared measuring laminin staining intensity at various concentrations of the compound. Laminin was labeled with rabbit anti-laminin antibodies. Nuclei are stained with DAPI. Fibroblasts obtained from a muscular dystrophy patient were seeded at 3000 cells per well in 384-well plates and treated in duplicate at 10 μm with individual compounds from the drug/nutraceutical library. After 48 hours in culture conditions, the cells were exposed to serum free media containing 0.1% BSA and 10 ug/ml laminin from Engelbreth-Holm-Swarm murine sarcoma basement membrane for a period of 2 hours. Cells were then fixed with 4% paraformaldehyde and stained with DAPI and a laminin-specific antibody, followed by a fluorescently labeled secondary antibody directed against the laminin specific antibody. The plates were then scanned using an Opera high content confocal microscopy screening system (PerkinElmer) at 20× magnification with separate fluorescent exposures, utilizing a UV light source and a 561 nm laser. Image analysis was performed to quantify levels of laminin staining using a customized algorithm written with Acapella software (Perkin Elmer). The cytoplasm was defined using DAPI staining as a mask, and the average cytoplasmic intensity of fluorescence per cell was calculated on the basis of at least six random fields captured per well.

[2] = tested on: Fibroblasts obtained from a muscular dystrophy patient; test: Laminin binding assay (high content screen) in fibroblasts from a muscular dystrophy patient; settings: for hit in the laminin binding screen (normalizes fibroblast laminin binding; at least 20% activity compared with controls): 10 μm, duplicate, 48 hours, 384-well plates, anti-laminin staining
Method: (§1) Fibroblasts obtained from a muscular dystrophy patient were seeded at 3000 cells per well in 384-well plates and treated in duplicate at 10 μm with individual compounds from the drug/nutraceutical library. After 48 hours in culture conditions, the cells were exposed to serum free media containing 0.1% BSA and 10 ug/ml laminin from Engelbreth-Holm-Swarm murine sarcoma basement membrane for a period of 2 hours. Cells were then fixed with 4% paraformaldehyde and stained with DAPI and a laminin-specific antibody, followed by a fluorescently labeled secondary antibody directed against the laminin specific antibody. The plates were then scanned using an Opera high content confocal microscopy screening system (PerkinElmer) at 20× magnification with separate fluorescent exposures, utilizing a UV light source and a 561 nm laser.
(§2) Image analysis was performed to quantify levels of laminin staining using a customized algorithm written with Acapella software (Perkin Elmer). The cytoplasm was defined using DAPI staining as a mask, and the average cytoplasmic intensity of fluorescence per cell was calculated on the basis of at least six random fields captured per well.
A compound in the drug/nutraceutical library was considered to normalize the level of fibroblast laminin binding if the compound scored at least 20% activity compared with controls. Fibroblasts from a healthy individual, or from patient cells treated with Trichostatin A at 2 uM were used as positive controls.
Trichostatin A, SAHA, and Givinostat (another HDAC inhibitor in the same class as Trichostatin A and SAHA) were further tested in an eight-point dose-response assay (at a range of 20-0.02 μm, at three fold dilutions) in triplicate.

[3] = tested on: fibroblasts from the CMD-FKRP patient; test: Laminin binding, fibroblasts from FKRP deficient patients (FIG. 6, FIG. 9)
Description: FIG. 6. Fibroblasts were obtained from CMD patients with either low (CMD-FKRP) laminin binding, mid-range laminin binding (LGMD/CMD-FKRP), or closer to normal (LGMD-FKRP) laminin binding. […] Laminin was labeled with rabbit anti-laminin antibodies. Nuclei are stained with DAPI.
(§3) FIG. 9. Fibroblasts were taken from an FKRP deficient CMD patient and a POMT1 deficient CMD patient. […] Laminin is labeled with rabbit anti-laminin antibodies. Nuclei are stained with DAPI.
Fibroblasts obtained from a muscular dystrophy patient were seeded at 3000 cells per well in 384-well plates and treated in duplicate at 10 μm with individual compounds from the drug/nutraceutical library. After 48 hours in culture conditions, the cells were exposed to serum free media containing 0.1% BSA and 10 ug/ml laminin from Engelbreth-Holm-Swarm murine sarcoma basement membrane for a period of 2 hours. […]
as §2

[4] = tested on: fibroblasts from the CMD-POMT1 patient; test: Laminin binding, fibroblasts from a POMT1 deficient CMD patient (FIG. 9)
Method: as §3, §1, §2

SMILES | levels of laminin binding (laminin staining intensity) [1] | hit in the laminin binding screen (normalizes fibroblast laminin binding; at least 20% activity compared with controls) [2] | laminin binding of patient's fibroblasts after treatment ([2]; fibroblasts from a CMD-affected patient, compared with unaffected sibling, rabbit anti-laminin antibodies, FIG. 4) | laminin binding ([3]; fibroblasts from the CMD-FKRP patient, FIG. 9) | laminin binding ([3]; fibroblasts with low (CMD-FKRP), mid-range (LGMD/CMD-FKRP) or closer to normal (LGMD-FKRP) laminin binding, FIG. 6) | laminin binding [4]
CCN(CC)Cc1ccc2cc(COC(=O)Nc3ccc(C(=O)NO)cc3)ccc2c1 [Givinostat] | increased levels of laminin binding |  |  |  |  | 
O=C(CCCCCCC(=O)Nc1ccccc1)NO [SAHA] |  | identified as hits | normalized to the levels of the patient's unaffected sibling |  |  | 
CC(/C=C/C(=O)NO)=C\[C@@H](C)C(=O)c1ccc(N(C)C)cc1 [Trichostatin A] |  | identified as hits |  | increased laminin binding | increased laminin binding | did not result in visibly increased laminin binding

Source: US10161929B2, “Theranostics platform and methods of use” (Sanford Burnham Prebys Medical Discovery Institute, priority 2012, dated 2018)
